The values below come from patent US20260159854A1, “NOVEL CARRIERS FOR NUCLEIC ACID AND/OR PROTEIN DELIVERY” (LUDWIG-MAXIMILIANS-UNIVERSITÄT MÜNCHEN, priority 2022, published 2026).

For data set [1], the system named is N2a cells. Put plainly: Co-delivery efficiency of mRNA/pDNA polyplexes by flow cytometry. Particulars: N/P 18, 25 and 50 ng combined nucleic acid/well. It is filed as cell-based, murine. Here is the method: CleanCap® mCherry mRNA (5moU) (Trilink Biotechnologies, San Diego, CA, USA) and pEGFP-N1 pDNA (Clontech Laboratories, Inc. (now Takara Bio USA, Inc., San Jose, CA, USA)) at a fixed weight ratio of 1:1 were mixed and diluted in HBG. Calculated amounts of aminolipid at indicated N/P (nitrogen/phosphate) ratios (see above) were diluted in separate tubes of HBG. Equal volumes of nucleic acid solution and aminolipid solution were mixed by rapid pipetting and incubated 40 min at RT in a closed Eppendorf reaction tube. The final concentration of nucleic acid in the polyplex solution was 5 μg/mL (2.5 μg/mL mCherry mRNA plus 2.5 μg/mL pEGFP-N1 pDNA).
mRNA/pDNA polyplex treatments were performed in triplicate in 96-well plates. N2a cells were seeded 24 h prior to transfection (10,000 cells/well). On the next day, the medium was replaced with 80 μL of fresh pre-warmed medium containing 10% (v/v) FBS. The nanoparticles were prepared as described above, and the volumes of 10 and 5 μL of polyplex solution (2.5 μg/mL mCherry mRNA and 2.5 μg/mL pEGFP-N1 pDNA) were added. 20 μL HBG buffer per well was used as negative control. After 24 h of treatment, cells were collected and re-suspended in PBS solution containing 10% (v/v) FBS (FACS buffer) for flow cytometric evaluation. All samples were analyzed by flow cytometry using a CytoFLEX S Flow Cytometer (Beckman Coulter, Brea, CA, USA). Shortly before the measurement, 1 ng/μL 4′, 6-diamidino-2-phenylindole (DAPI) was added and used to discriminate between viable and dead cells. The cellular fluorescence was assayed by excitation of DAPI at 405 nm and detection of emission at 450 nm. Only isolated viable cells were evaluated. Gates were set compared to control measurements with HBG buffer-treated cells. […] Flow cytometry data were analyzed using FlowJo™ v10.8 flow cytometric analysis software by FlowJo, LLC (Becton, Dickinson and Company, U.S.). The cellular fluorescence expression was assayed by excitation at 561 nm and 488 nm, the detection of emission at 610 nm and 530 nm for mCherry and eGFP, respectively.
Background: In flow cytometry, cells or beads pass a laser one at a time.

Data set [2] deals with N2a cells. Put plainly: Luciferase expression assay of pDNA polyplexes in N2a cells. Particulars: for transfection efficiency (luciferase expression) of pDNA polyplexes: 24 h, standard pDNA dose 200 ng/well, compared with LPEI N/P 6; for dose dependence of pDNA transfection efficiency: dose titration 200, 100, 50, 26, 14 ng pCMVLuc/well. The class given is cell-based, murine.

In data set [3] the test system is N2a cells. Put plainly: Luciferase expression assay of mRNA polyplexes in N2a cells. It is filed as cell-based, murine.
The nature of data set [4]: Particle size, polydispersity and zeta potential measurement (DLS, ELS). It is filed as physicochemical. Details: Zeta / Size: unit not given here. Here is the method:
6.6 Particle Size and Zeta Potential Measurement for pDNA, mRNA, siRNA, Cas9 mRNA/sgRNA and Cas9 mRNA/sgRNA/ssDNA Polyplexes as Well as mRNA LNPs
Measurements of size and zeta potential were performed with a Zetasizer Nano ZS (Malvern Instruments, Malvern, Worcestershire, U.K.) in a folded capillary cell (DTS1070) by dynamic and electrophoretic laser-light scattering (DLS, ELS). […] Samples were measured three times with six sub runs per measurement. For measurement of the zeta potential, all samples were diluted to 800 μL with HBG or HEPES (for siRNA polyplexes) directly before measurement. Parameters were identical to the size measurement apart from an equilibration time of 60 sec. Three measurements with 15 sub runs lasting 10 sec each were performed, and zeta potentials were calculated by the Smuchowski equation.

The next data set relates to HeLa cells. Kind of data set: CellTiterGlo assay (relative metabolic activity). It is filed as cell-based. Particulars: mRNA polyplexes, 25% of the standard mRNA dose of 250 ng/well, vs 1621. Here is the method: HeLa cells were seeded 24 h prior to transfection (5000 cells/well) in 96-well plates. Immediately prior to transfection, the medium was replaced with suitable amounts of fresh medium containing 10% (v/v) FBS to reach a final volume of 100 μL during transfection. The nanoparticles were prepared as described in section 6.1 and transfected with indicated doses. The medium was removed at 24 h after transfection, and 25 μL of fresh, pre-warmed medium as well as 25 μL of CellTiterGlo® Reagent (Promega, Mannheim, Germany) were added to each well [S. Berger et al., Biomacromolecules 2021, 22, 1282; A. Krhač Levačić et al., J Controlled Release 2021, 339, 27]. After incubation on an orbital shaker for 30 min at RT, luminescence was recorded using a Centro LB 960 plate reader luminometer (Berthold Technologies, Bad Wildbad, Germany). The luminescent signals (in RLU) of the samples were normalized to the luminescent signal of the negative control (HBG buffer-treated control cells). Results were presented as relative metabolic activity related to the negative control. Experiments were performed as triplicates.
A general note: In ATP-based viability assays light output follows the ATP content of the culture.

In data set [5] the test system is N2a tumor-bearing A/J mice. Put plainly: Ex vivo luciferase expression after intravenous injection of mRNA polyplexes. The class given is in vivo.
Description: Neuro2a cells (10^6 cells/150 μL PBS) were inoculated subcutaneously into the left flank of 6-week-old female A/J mice (Envigo RMS GmbH, Dusseldorf, Germany). Mice were randomly divided into groups of three (in the case of mRNA LNPs) or five (in the case of mRNA polyplexes) and were housed in isolated ventilated cages under specific pathogen free conditions with a 12 h day/night interval, and food and water ad libitum. Weight and general well-being were monitored continuously. Tumor size was measured with a caliper and determined by formula: a*b^2/2 (a=longest side of the tumor; b=widest side vertical to a). When tumors reached a size of 250-500 mm3, the experiments were performed by intravenous tail vein injection of polyplexes or LNPs formed as described in 6.1 and 6.3, containing 1 μg, 3 μg or 10 μg of stabilized firefly luciferase encoding mRNA (CleanCap™ FLuc mRNA (5moU); Trilink Biotechnologies, San Diego, CA, USA) in 150 μL HBG. Polyplexes containing 10 μg mRNA were dialyzed for 1 h at 4° C. against HBG (dialysis membrane MWCO 100-500 Da; Spectra/Por®, Carl Roth, Karlsruhe, Germany) prior to application to remove small amounts of ethanol. […] The luciferase gene expression was determined as described above and is presented as relative light units (RLU) per gram (g) tumor/organ.
To evaluate luciferase mRNA delivery by an ex vivo luciferase gene expression assay, organ and tumor tissues were homogenized in Luciferase Cell Culture Lysis Reagent 1× (Promega, Mannheim, Germany), supplemented with 1% (v/v) protease and phosphatase inhibitor cocktail (Sigma-Aldrich, Munich, Germany) using a tissue and cell homogenizer (FastPrep®-24, MP Biomedicals, USA). […] Luciferase activity in 25 μL supernatant was measured in a Centro LB 960 plate reader luminometer (Berthold Technologies, Bad Wildbad, Germany) for 10 sec after addition of 100 μL/well of a LAR buffer solution (20 mM glycylglycine, 1.0 mM MgCl2, 0.10 mM EDTA, 3.3 mM DTT, 0.55 mM ATP, and 0.27 mM coenzyme A; pH 8-8.5) supplemented with 5% (v/v) of a mixture of 10 mM luciferin and 29 mM glycylglycine.
Another data set relates to Huh7 cells. Kind of data set: Luciferase expression assay of pDNA polyplexes in Huh7 cells. The class given is cell-based, human.
The mark [6] stands for this setting: Cas9 mRNA/sgDMDex23 polyplexes, N/P 24, combined nucleic acid 12.5 μg/mL.
[7] abbreviates: mRNA polyplexes, 12.5 μg/mL CleanCap FLuc mRNA (5moU), N/P 12 (1611, 1719, 1722, 1732), N/P 24 (1614), N/P 18 (1621, 1747).
Setting [8] is: mRNA LNPs, 12.5 μg/mL CleanCap FLuc mRNA (5moU), N/P 9, molar ratios see Table A.
Setting [9] is: PEGylated pDNA polyplexes 25% PEG, 10 μg/mL pCMVLuc.
The mark [10] stands for this setting: Targeted pDNA polyplexes 12.5% PEG 2k, 12.5% PEG-GE11, 10 μg/mL pCMVLuc.
The mark [11] stands for this setting: Unmodified pDNA polyplexes 0%, 10 μg/mL pCMVLuc.
Where [12] appears, read: pDNA polyplexes, N/P 18, 10 μg/mL pCMVLuc.
Where [13] appears, read: Cas9 mRNA/sgGFP1 polyplexes, N/P 18, combined nucleic acid 5.0 μg/mL.
Setting [14] is: pDNA polyplexes, N/P 12, 10 μg/mL pCMVLuc.

For K(12He)-Stp-K(12He) [compound 1765], the “mCherry mRNA/eGFP pDNA co-expression (co-delivery efficiency)” value with N2a cells [1] was “most potent structures”.

With “K(DodOc)2-Stp2-K(DodOc)-K(DodOc) [compound 1725]”, the “transfection efficiency of pDNA polyplexes, DodOc (amide) control vs LAF analog” value with N2a cells [2] (N/P 12, 200 ng pCMVLuc/well) was “ineffective”. The “transfection efficiency of mRNA polyplexes, DodOc (amide) control vs LAF analog” value with N2a cells [3] (N/P 12, 62.5 ng mRNA/well) is recorded as “ineffective”.

With “K(8Oc)2-Stp2-K(8Oc)-K(8Oc) [compound 1731]”, in data set [4] (setting [6]), the Z-average is 67.5 nm and the Zeta potential turned out to be 37.5 mV.

K(12Bu)-Stp-K(12Bu) [compound 1763]: the “mCherry mRNA/eGFP pDNA co-expression (co-delivery efficiency)” value with N2a cells [1] is given as “most potent structures”.

Turning to “K(12Oc)2-Stp2-K(12Oc)-K(12Oc) [compound 1722]”, in data set [4] (setting [7]), the Pdl was 0.339, the Z-average is given as 92.5 nm and the Zeta potential worked out at 44.4 mV. For the same compound, in the data set on N2a cells [2], the “transfection efficiency (luciferase expression) of pDNA polyplexes” value is listed as “most potent pDNA carriers”. Besides, the “transfection efficiency (luciferase expression) of mRNA polyplexes” value with N2a cells [3] (24 h, dose titration 63, 31, 16 ng mRNA/well, vs succPEI and 1218) is on record as “dose-independent transfection efficiency”.

As to “K(8Oc)2-Stp-K(8Oc)-K(8Oc) [compound 1620]”, in data set [4] (setting [6]), the Pdl is recorded as 0.130, the Z-average came out at 134.3 nm and the Zeta potential was 22.7 mV. Besides, in data set [4] (setting [8]), the Pdl worked out at 0.152, the Z-average came to 271.1 nm and the Zeta potential was −1.41 mV.

Turning to “[K(12Oc)]2-Stp-[K(12Oc)]2 [compound 1718]”, in data set [4] (setting [6]), the Pdl is on record as 0.223, the Z-average is recorded as 107.5 nm and the Zeta potential worked out at 36.0 mV. In addition, in data set [4] (setting [8]), the Pdl was 0.140, the Z-average worked out at 198.1 nm and the Zeta potential was determined as 0.03 mV.

With `CCCCCCCCN(CCCCCCCC)CCCCCCCC(=O)NCCCC[C@H](NC(=O)CCCCCCCN(CCCCCCCC)CCCCCCCC)C(=O)NCCSSCCNC(=O)CCC(=O)NCCCC[C@H](NC(=O)CCC(=O)NCCSSCCNC(=O)[C@H](CCCCNC(=O)CCCCCCCN(CCCCCCCC)CCCCCCCC)NC(=O)CCCCCCCN(CCCCCCCC)CCCCCCCC)C(=O)NCCNCCNCCNCCNC(=O)CCC(=O)O` [compound 1792, [(8Oc)2)-K-ssbb]2-K-Stp], in the data set on HeLa cells, the “cell viability (relative metabolic activity, CellTiter Glo)” value was “significantly improved cell viability”.

For the compound “[K(12He)]2-Stp2-[K(12He)]2 [compound 1760]”, the “in vivo luciferase expression of mRNA polyplexes” value in data set [5] (tumors, lungs, liver, spleen) is “great in vivo performance”.

As for K[K[8Oc)2]2-Stp2 [compound 1730], in the data set on Huh7 cells (N/P 12, pDNA dose 50 ng/well), the “RLU values of targeted polyplexes in comparison to shielded polyplexes” value was 32.8 fold. For the same compound, the “RLU values of targeted polyplexes in comparison to shielded polyplexes” value in the data set with Huh7 cells (N/P 12, pDNA dose 100 ng/well) worked out at 25.5 fold. In data set [4] (setting [9]), this compound came in with a Pdl of 0.22, a Size of 100 and a Zeta of 2.0. In data set [4] (setting [10]), the Pdl is 0.17, the Size is listed as 125 and the Zeta is 2.0. In data set [4] (setting [11]), this compound displayed a Pdl of 0.21, a Size of 109 and a Zeta of 15.9. Further, in data set [4] (setting [12]), the PDI was found to be 0.10 ± 0.01, the Z-average is on record as 95.3 ± 1.6 nm and the Zeta potential came out at 21.7 ± 0.6 mV.

As for “K(12Oc)2-Stp-K(12Oc)-K(12Oc) [compound 1612]”, in data set [4] (setting [8]), the Pdl amounted to 0.273, the Z-average came to 275.8 nm and the Zeta potential was determined as 1.88 mV.

Take “[K(8Oc)]2-Stp2-[K(8Oc)]2 [compound 1745]”: in data set [4] (setting [13]), the Pdl worked out at 0.266 ± 0.046, the Z-average stood at 99.4 ± 7.9 nm and the Zeta potential was determined as 11.9 ± 1.6 mV.

As to K(12Oc)2-Stp [compound 1614], in data set [4] (setting [7]), the Pdl was determined as 0.223, the Z-average stood at 111.6 nm and the Zeta potential amounted to 15.7 mV.

On to “K(12Oc)2-Stp2-K[K(12Oc)2] [compound 1717]”, for which the “transfection efficiency (luciferase expression) of pDNA polyplexes” value in the data set with N2a cells [2] was “most potent pDNA carriers”.

In data set [4] (setting [14]), K(12Oc)2-Stp2 [compound 1710] showed a Pdl of 0.246 ± 0.024, a Z-average of 111.8 ± 11.4 nm and a Zeta potential of 15.6 ± 2.1 mV. Further, the “dose dependence of pDNA transfection efficiency” value in the data set on N2a cells [2] is recorded as “good performance only at the highest dose”.

As for K[K[12Oc)2]2-Stp [compound 1613], in data set [4] (setting [8]), the Pdl turned out to be 0.159, the Z-average is given as 176.8 nm and the Zeta potential is listed as −3.03 mV.

In data set [4] (setting [7]), “K(12Oc)-(^εK-^εK-6-Ahx)-K(12Oc) [compound 1747]” gave a Pdl of 0.146, a Z-average of 91.1 nm and a Zeta potential of 17.5 mV.

For the compound Stp-K[K(12Oc)2]-Stp [compound 1715], in data set [4] (setting [14]), the Pdl is listed as 0.100 ± 0.010, the Z-average is on record as 89.8 ± 1.4 nm and the Zeta potential is on record as 24.47 ± 1.4 mV. For the same compound, the “dose dependence of pDNA transfection efficiency” value in the data set on N2a cells [2] is listed as “good performance only at the highest dose”.

As for K[K2-K(12Oc)2]2 [compound 1851], the “RLU values relative to Stp2 analog 1717” value in the data set on N2a cells [3] (15 ng mRNA/well) is reported as “around 10 fold”. Further, the “transfection efficiency of mRNA polyplexes vs Stp2 analog 1717” value in the data set with N2a cells [3] (all tested N/P ratios, 50 and 15 ng mRNA/well) is reported as “outperformed its Stp2 analog”.

With `CCCCCCCCCCCCN(CCCCCCCCCCCC)CCCCCCCC(=O)NCCCC[C@H](NC(=O)CCC(=O)NCCNCCNCCNCCNC(=O)[C@@H](N)CCCCNC(=O)CCCCCCCN(CCCCCCCCCCCC)CCCCCCCCCCCC)C(=O)O` [compound 1611, K(12Oc)-Stp-K(12Oc)], the “in vivo toxicity / tolerability of mRNA polyplexes” value in data set [5] is listed as “good tolerability”.

For the compound “K[K(12Oc)2]-Stp-K[K(12Oc)2] [compound 1720]”, in data set [4] (setting [8]), the Pdl is 0.196, the Z-average came to 209.8 nm and the Zeta potential turned out to be 0.70 mV.
